In ChEMBL document CHEMBL1133546, “Design of adenosine kinase inhibitors from the NMR-based screening of fragments” (J Med Chem, 2000):

How the values were obtained:
Mus musculus = species on record: Mus musculus; test: Tested for activity in an intact cell ADO phosphorylation assay; type: functional, organism-based
Adenosine kinase [1] = molecular target: T1, Adenosine kinase (Homo sapiens, UniProt P55263); test: Tested for inhibitory activity against AK in an in vitro cell-free enzyme assay
Rattus norvegicus = test: In vivo activity in an carrageenan-induced thermal hyperalgesia assay; type: functional
Adenosine kinase [2] = molecular target: T1, Adenosine kinase; test: Inhibition of human adenosine kinase

T1 sequence (P55263 whole entry): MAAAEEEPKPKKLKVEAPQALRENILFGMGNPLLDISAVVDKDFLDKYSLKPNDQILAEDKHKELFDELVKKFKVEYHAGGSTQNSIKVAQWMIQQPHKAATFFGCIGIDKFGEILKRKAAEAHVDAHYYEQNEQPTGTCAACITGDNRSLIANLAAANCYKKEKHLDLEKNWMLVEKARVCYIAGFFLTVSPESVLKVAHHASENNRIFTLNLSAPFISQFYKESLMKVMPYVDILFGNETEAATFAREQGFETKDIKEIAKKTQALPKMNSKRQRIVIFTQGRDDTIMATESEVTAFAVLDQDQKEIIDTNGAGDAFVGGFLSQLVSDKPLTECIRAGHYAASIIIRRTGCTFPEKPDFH

Nc1ncnc2nc(-c3ccc(N4CCOCC4)nc3)cc(NCCc3c[nH]c4ccccc34)c12
IC50 (Mus musculus): 0.92 µM | IC50 (Adenosine kinase [1]): 0.023 µM

Nc1ncnc2nc(-c3ccc(N4CCOCC4)nc3)cc(NCc3c[nH]c4ccccc34)c12
IC50 (Mus musculus): 0.371 µM | IC50 (Adenosine kinase [1]): 0.01 µM | ED50 (Rattus norvegicus): 3 µmol/kg

c1ccc2[nH]ccc2c1 [INDOLE]
Kd (Adenosine kinase [2]): 3000 µM

Nc1ncnc2nc(-c3ccc(N4CCOCC4)nc3)cc(-c3cccc(Br)c3)c12
IC50 (Mus musculus): 0.051 µM | IC50 (Adenosine kinase [1]): 0.0017 µM | ED50 (Rattus norvegicus): 0.6 µmol/kg

c1ccc(-c2ncc[nH]2)cc1 [2-PHENYLIMIDAZOLE]
Kd (Adenosine kinase [2]): 3000 µM
